Patent publication EP4650362A1, “NEUROPROTECTIVE PSD-95 POLYPEPTIDE INHIBITOR AND USE THEREOF” (Beijing Tuo Jie Biopharmaceutical Co. Ltd., priority 2023, dated 2024)
pEC50, pIC50: −log10 of the molar value. Where two headings read alike, the source gives them in different places. Non-standard residues stand in square brackets, D forms with d. Residues, ends and D or L forms follow the SMILES beside them. Chg = N[C@H](C(=O)O)C1CCCCC1; Tle = CC(C)(C)[C@H](N)C(=O)O; Dab = NCC[C@H](N)C(=O)O; Aib = CC(C)(N)C(=O)O

Key:
[1] = target: T1, human PSD95-PDZ2 (Homo sapiens, UniProt P78352); assay: binding ELISA with Biotin-PDZ2; conditions: for pEC50: plate coated with 2 µM test compound, Biotin-PDZ2 titrated, read-out: EC50 (PDZ2)
T1 construct: PDZ2 (155-249, the Flag-His-Avitag-TEVsite tag is italicized); made in house; host or cells: E. coli BL21-DE3 (PET vector)
Description: (§1) The three PDZ domains in the PSD95 protein are structurally similar. Binding to the PDZ1 and PDZ2 domains can effectively block PSD95-mediated neuroexcitotoxicity. However, the biological function of binding to the PDZ3 domain is unclear. Therefore, to avoid potential safety concerns, this test example assessed the selectivity of polypeptide compounds for the PDZ2 and PDZ3 domains, aiming to identify polypeptide compounds that specifically bind to the PDZ2 domain. Site-specifically biotinylated Biotin-PDZ2 and Biotin-PDZ3 proteins were used for binding ELISA assays. […] After the blocking was complete, the blocking solution was discarded, and the plate was washed three times with PBST buffer. […] After the incubation was complete, the reaction solutions in the microplate were discarded, and the plate was washed three times with PBST. 100 µL of HRP-SA secondary antibody (diluted at 1:2000) was added to each well, and the plate was incubated at 37 °C for 1 h. After the plate was washed three times with PBST, 100 µL of TMB chromogenic substrate was added. […] The absorbance at 450 nm was measured using a SpectraMax M5 microplate reader, and the binding EC50 values of the test compounds to Biotin-PDZ2 or Biotin-PDZ3 were calculated using GraphPad Prism 9. […] The abilities of polypeptide compounds to bind to human PSD95-PDZ2 and human PSD95-PDZ3
Target sequence in this assay (P78352 155-249): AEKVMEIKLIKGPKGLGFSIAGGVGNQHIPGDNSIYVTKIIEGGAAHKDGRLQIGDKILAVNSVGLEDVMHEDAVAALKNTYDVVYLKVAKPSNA

[2] = target: T1, human PSD95-PDZ2; assay: competitive ELISA, affinity for human PSD95-PDZ2; assay type: binding; conditions: for pIC50: competitive ELISA against 0.3 µM Biotin-NA-1, error of this test within three times, read-out: IC50
Description: The objective of this test example was to determine the affinities of polypeptide compounds for human PSD95-PDZ2 using competitive ELISAs.
The amino acid sequence of PDZ2 protein was designed using human PSD95 (Uniprot Entry: P78352) as a template for PDZ: PDZ2 (155-249, the Flag-His-Avitag-TEVsite tag is italicized and was subsequently used for purification and biotinylation): […]
[…] (SEQ ID NO. 62). The PDZ2 gene was constructed onto a PET expression vector, and induced expression was performed using BL21-DE3 E. coli cells under conditions of 37 °C and 1 mM IPTG 4 h. Then centrifugation was performed at 10,000 g at 4 °C for 10 min, and the cell pellets were collected, resuspended in 1× PBS solution, and then lysed using a homogenizer. The lysate was centrifuged at high speed, and the supernatant was collected and filtered through a 0.45 µm membrane. A Ni-Sepharose affinity column was equilibrated with 5 column volumes of a 20 mM phosphate buffer (pH 8.0). The sample was centrifuged at high speed to remove impurities and loaded onto the column for binding. The column was rinsed with the 20 mM phosphate buffer until the A280 reading dropped to the baseline. Gradient elution was then performed with the 20 mM phosphate buffer and 0-500 mM imidazole. A protein was collected, and whether it was the target protein was determined. The purified sample described above was buffer-exchanged into 1× PBS solution, and the resulting solution was concentrated to a volume of 2 mL and further purified using a Superdex200 gel chromatography column (GE) equilibrated with 1× PBS. The target peak was collected and aliquoted for later use.
PSD95-PDZ2 (the tag was removed by TEV enzyme) was diluted with 1× PBS buffer to 1 µg/mL, added to a 96-well microplate (Corning, 9018, 25/box 96-well clear flat bottom plate) at 100 µL/well, and left to stand overnight at 4 °C for 16-20 h. After the liquid was discarded, the plate was washed three times with PBST (pH 7.4, 0.05% Tween-20) buffer, and a 4% BSA blocking solution diluted with PBST buffer was then added (300 µL/well). The plate was blocked by incubation in an incubator at 37 °C for 1 h. After the blocking was complete, the blocking solution was discarded, and the plate was washed three times with PBST buffer. Biotin-NA-1, at a constant concentration of 0.3 µM, and the test compounds, having a starting concentration of 100 µM and serially diluted ten-fold with PBS buffer to seven concentrations (100, 10, 1, 0.1, 0.01, 0.001, 0.0001, and 0 µM), were then added, and the plate was incubated in an incubator at 37 °C for 1 h. After the incubation was complete, the reaction solutions in the microplate were discarded, and the plate was washed three times with PBST. 100 µL of HRP-SA secondary antibody (diluted at 1:2000) was added to each well, and the plate was incubated at 37 °C for 1 h. After the plate was washed three times with PBST, 100 µL of TMB chromogenic substrate was added. The plate was incubated at room temperature for 1-3 min, and 100 µL of 1 M sulfuric acid was added to stop the reaction.
The absorbance at 450 nm was measured using a SpectraMax M5 microplate reader, and non-linear fitting was performed using GraphPad Prism 9 to calculate the binding IC50 values of the test compounds to PSD95-PDZ2 protein.

[3] = pharmacokinetic study in rats, single intravenous bolus injection; assay type: in vivo, SD rats; conditions: rats, intravenous bolus injection over 10 min, 3 nmol/g, n = 3
Method: With male SD rats as test animals, the pharmacokinetic behavior of polypeptide compounds administered via single intravenous bolus injection in rats (plasma) was studied.
Male SD rats weighing 170 to 200 grams and aged 4-6 weeks were purchased from Beijing Vital River Laboratory Animal Technology Co., Ltd. The polypeptide compounds were dissolved in 1× PBS, and the polypeptide compound solutions were then administered via intravenous bolus injection over 10 min at a dose of 3 nmol/g, with three animals per group. At each of the time points of 2 min, 8 min, 15 min, 30 min, 45 min, 60 min, and 120 min after the end of bolus injection, 0.2 mL of blood was collected and transferred to an EDTA-K2 anticoagulation centrifuge tube. The whole blood sample was centrifuged at 4 °C at 4000 g for 5 min, and a plasma sample was obtained by separation and cryopreserved at -80 °C.
The pharmacokinetic parameters of polypeptide compound 22, administered via intravenous bolus injection, in rats were determined using a similar method, with the difference being that an enzyme inhibitor was added immediately after blood collection.
The plasma concentrations of the test compounds were determined using the method in Test Example 3.4.3. Plasma concentration-time curves were plotted, and the pharmacokinetic parameters were calculated using PKSolver software. The experimental results are shown in Table 5-1, Table 5-2, and FIG. 3.

[4] = target: T2, human PSD95-PDZ3 (Homo sapiens, UniProt P78352); assay: binding ELISA with Biotin-PDZ3; conditions: plate coated with 2 µM test compound, Biotin-PDZ3 titrated; read-out: EC50 (PDZ3)
T2 construct: PDZ3 (309-401, Flag-His-Avitag-TEVsite tag); made in house
T2 sequence (P78352 309-401): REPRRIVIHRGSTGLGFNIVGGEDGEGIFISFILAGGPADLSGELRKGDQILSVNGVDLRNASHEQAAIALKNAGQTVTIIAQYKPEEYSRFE
Description: as §1, with “domain. The expression and purification of PSD95-PDZ3 protein were carried out with reference to the steps in 3.1.2. The amino acid sequence of PDZ3 protein: […]” for “domain.”, “μL” for “µL”

| SMILES | pEC50 [1] | pIC50 [2] | AUC(0-inf) ([3]; male, SD, rat, plasma) [ng·h/mL] | MRT ([3]; male, SD, rat, plasma) [min] | AUC(0-t) ([3]; male, SD, rat, plasma, read-out: AUC(0-t)) [ng·h/mL] | Cmax ([3]; male, SD, rat, plasma, read-out: Cmax) [ng/mL] | half-life ([3]; male, SD, rat, plasma, read-out: T1/2 (converted)) [min] | AUClast/dose [3] | pEC50 [4] | selectivity for the PSD95-PDZ2 domain ([1]; PDZ2 versus PDZ3, conclusion in words) | Specificity for PDZ2 (PDZ3/PDZ2) ([1]; ratio PDZ3/PDZ2) | rIC50 ([2]; ratio of the affinity of the polypeptide compound to the affinity of NA-1) | AUC(0-t) [3] [ng·h/mL] | AUC(inf) [3] [ng·h/mL] | Cmax [3] [ng/mL] | MRTO-inf [3] [min] | T1/2 [3] [min] |
| --- | --- | --- | --- | --- | --- | --- | --- | --- | --- | --- | --- | --- | --- | --- | --- | --- | --- |
| CC(C)[C@H](NC(=O)[C@H](CC(=O)O)NC(=O)[C@H](CO)NC(=O)[C@@H](NC(=O)[C@@H](NC(=O)[C@@H](NC(=O)[C@H](CCN)NC(=O)C(C)(C)NC(=O)CNC(=O)[C@@H](CCCNC(=N)N)NC(=O)[C@@H](CCCNC(=N)N)NC(=O)[C@@H](CCCNC(=N)N)NC(=O)[C@@H](CCC(N)=O)NC(=O)[C@@H](CCCNC(=N)N)NC(=O)[C@@H](CCCNC(=N)N)NC(=O)[C@@H](CCCCN)NC(=O)[C@@H](CCCCN)NC(=O)[C@@H](CCCNC(=N)N)NC(=O)CNC(=O)[C@H](N)Cc1ccc(O)cc1)[C@@H](C)O)C1CCCCC1)C(C)(C)C)C(=O)O [Polypeptide compound 19, y-G-r-k-k-r-r-q-r-r-r-G-Aib-Dab-T-Chg-Tle-S-D-V] (H-[dY]G[dR][dK][dK][dR][dR][dQ][dR][dR][dR]G[Aib][Dab]T[Chg][Tle]SDV-OH) | 7.54 | 6.21 | 11800 | 57.6 | 10200 | 19600 | 43.8 | 1345 | < 3.00 |  |  |  |  |  |  |  |  |
| CC(C)[C@H](NC(=O)[C@H](CC(=O)O)NC(=O)[C@H](CO)NC(=O)[C@@H](NC(=O)[C@@H](NC(=O)[C@@H](NC(=O)CNC(=O)[C@@H](CCCNC(=N)N)NC(=O)[C@@H](CCCNC(=N)N)NC(=O)[C@@H](CCCNC(=N)N)NC(=O)[C@@H](CCC(N)=O)NC(=O)[C@@H](CCCNC(=N)N)NC(=O)[C@@H](CCCNC(=N)N)NC(=O)[C@@H](CCCCN)NC(=O)[C@@H](CCCCN)NC(=O)[C@@H](CCCNC(=N)N)NC(=O)CNC(=O)[C@H](N)Cc1ccc(O)cc1)[C@@H](C)O)C1CCCCC1)C(C)(C)C)C(=O)O [Polypeptide compound 21, y-G-r-k-k-r-r-q-r-r-r-G-T-Chg-Tle-S-D-V] (H-[dY]G[dR][dK][dK][dR][dR][dQ][dR][dR][dR]GT[Chg][Tle]SDV-OH) | 7.74 | 6.10 |  |  |  |  |  | 745 | < 3.00 | comparable to that of the positive drugs NA-1 and NoNO42 | >10000 | 0.88 | 5660 | 6396 | 15643 | 48 | 43.2 |
